Literature values as cited in patent publication US11273137B2, “Methods and compositions to prevent and treat disorders associated with mutations in the ODC1 gene” (Board of Trustees of Michigan State University, priority 2018, dated 2022).

What was measured:
[1] = tested on: transgenic mice overexpressing c-terminally deleted ODC (p.P427X)
[2] = transgenic mice with c-terminally deleted ODC

water solubility: water soluble
Structure (SMILES): NCCC[C@](N)(C(=O)O)C(F)F [DFMO, alpha-difluoromethylornithine]
phenotypic changes (skin and hair follicle abnormalities, alopecia) ([1]; heterozygous transgenic mice with c-terminal 34 aa ODC deletion targeted to the skin): reversible
hair growth ([1]; mice with complete hair loss): partially restored hair growth
hair loss [1, 2]: prevented hair loss
reappearance of normal follicles [1, 2]: activated reappearance of normal follicles
